Test results as given in publication PMC10383271.

Columns and labels:
[1] = target: T1, COX-1 (Ovis aries, UniProt P05979); assay: COX-1 inhibition, Cayman's COX Colorimetric Inhibitor Screening Assay Kit
T1 sequence (P05979 25-600): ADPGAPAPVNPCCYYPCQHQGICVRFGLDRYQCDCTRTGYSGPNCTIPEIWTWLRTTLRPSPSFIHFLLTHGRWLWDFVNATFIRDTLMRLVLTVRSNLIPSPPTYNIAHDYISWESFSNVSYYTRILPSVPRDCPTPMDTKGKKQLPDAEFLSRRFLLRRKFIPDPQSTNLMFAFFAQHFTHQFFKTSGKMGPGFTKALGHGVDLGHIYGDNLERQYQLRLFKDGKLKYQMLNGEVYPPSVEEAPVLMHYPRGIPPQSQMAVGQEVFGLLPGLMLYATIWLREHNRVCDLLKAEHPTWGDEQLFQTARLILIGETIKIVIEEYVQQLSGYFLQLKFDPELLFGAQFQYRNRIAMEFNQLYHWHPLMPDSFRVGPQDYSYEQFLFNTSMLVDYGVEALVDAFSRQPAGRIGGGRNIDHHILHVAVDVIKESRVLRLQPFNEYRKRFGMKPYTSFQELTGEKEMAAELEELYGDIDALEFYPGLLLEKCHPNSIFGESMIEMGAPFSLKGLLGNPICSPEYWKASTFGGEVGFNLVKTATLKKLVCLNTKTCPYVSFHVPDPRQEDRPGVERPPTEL

[2] = system: normal human dermal fibroblasts (NHDF); assay: MTT assay, viability of NHDF cell culture (ISO 10993 part 5); type: cell-based; conditions: NHDF cell cultures, 24 h incubation; for IC50: Homo sapiens, MTT, mean (± SD), n = 5
Method: The viability of the normal human dermal fibroblasts (NHDF) cell culture after 24 h incubation with the tested compounds 5a-c-7a-c was assessed by carrying out the MTT assay. This test was performed according to ISO 10993 part 5, Appendix C. For all tested compounds, the IC50 values were calculated using four-parameter logistics. Normal human dermal fibroblasts (NHDF) were purchased from the American Type Culture Collection (ATCC) for cytotoxicity evaluation of the tested compounds. The cells were grown in Dulbecco's Modified Eagle Medium DMEM with […] glucose without phenol red supplemented with 10% FBS and 2 mM L-glutamine, and 25 μg/mL gentamicin. The NHDF cells were cultured under standard conditions (5% CO2, 37 °C, and 95% humidity) with evaluation morphology and confluence at least twice a week. For the assay, the cells were used only in a logarithmic growth phase, and the TrypLE solution was used for 2 min at 37 °C to detach cells. Then, the TrypLE solution was inactivated by adding a culture medium, and the suspension of cells was collected into a tube and centrifuged for 5 min at 1000 rpm. Then, the supernatant was removed, fresh medium was added, and the pellet was resuspended and calculated using the […] chamber. The suspension of cells was prepared to allow seeding 10,000 cells/well density and incubated for 24 h to regenerate in CO2-incubator. The tested compounds were dissolved in DMSO to a final concentration of 10 mM and stored at -20 °C. Before use, the compound solution was kept at room temperature until thawing, and then, samples with 3 different concentrations of compounds were prepared (100 μM, 50 μM, and 10 μM) for each compound. The tested concentrations of compounds were prepared in a culture medium. […] The evaluation of the cytotoxicity of the newly synthesized compounds was carried out in accordance with the ISO 10,993 part V standard by performing the MTT test. After seeding at a density of 10,000 cells per well and adhering overnight, the NHDF cells were treated with the test compounds for 24 h in a CO2 incubator. The supernatant was then removed, the cells were washed with PBS, a 1mg/mL solution of MTT dissolved in MEM was added, and the cultures were re-incubated for 2 h in a CO2 incubator. The medium was then removed, and for a further 30 min, the formazan crystals were dissolved in 100 μL of isopropanol. The absorbance was measured with a Varioskan Go microplate reader at a wavelength of 570 nm. […] For enzyme assays, the IC50 was calculated according to the procedure provided by the kit manufacturer. The significance was set at p < 0.05. Based on the tests performed, the test power was calculated to be greater than 80%.

[3] = target: T2, COX-2 (Homo sapiens, UniProt P35354); assay: COX-2 inhibition, Cayman's COX Colorimetric Inhibitor Screening Assay Kit; conditions: for Selectivity Index (SI): COX-2 IC50/COX-1 IC50
T2 sequence (P35354 18-604): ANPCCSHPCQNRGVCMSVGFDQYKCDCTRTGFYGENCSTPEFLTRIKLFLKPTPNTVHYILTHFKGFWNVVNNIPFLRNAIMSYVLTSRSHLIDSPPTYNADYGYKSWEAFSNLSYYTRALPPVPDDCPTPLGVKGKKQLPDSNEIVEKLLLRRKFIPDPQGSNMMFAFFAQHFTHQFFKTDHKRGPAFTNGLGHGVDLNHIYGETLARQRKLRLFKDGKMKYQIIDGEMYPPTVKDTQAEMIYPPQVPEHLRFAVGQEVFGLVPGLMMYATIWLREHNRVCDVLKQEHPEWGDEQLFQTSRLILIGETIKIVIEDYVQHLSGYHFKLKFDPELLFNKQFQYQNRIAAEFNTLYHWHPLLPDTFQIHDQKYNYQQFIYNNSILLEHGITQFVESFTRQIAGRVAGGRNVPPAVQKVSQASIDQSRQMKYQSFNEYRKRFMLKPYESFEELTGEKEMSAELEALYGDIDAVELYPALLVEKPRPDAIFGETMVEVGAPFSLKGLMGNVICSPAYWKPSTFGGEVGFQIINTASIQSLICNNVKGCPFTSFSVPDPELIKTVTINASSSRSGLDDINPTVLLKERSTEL

[4] = target: T3, 15-LOX (Glycine max, UniProt P08170); assay: 15-LOX inhibition, Cayman's Lipoxygenase Inhibitor Screening Assay Kit
T3 sequence (P08170 1-839): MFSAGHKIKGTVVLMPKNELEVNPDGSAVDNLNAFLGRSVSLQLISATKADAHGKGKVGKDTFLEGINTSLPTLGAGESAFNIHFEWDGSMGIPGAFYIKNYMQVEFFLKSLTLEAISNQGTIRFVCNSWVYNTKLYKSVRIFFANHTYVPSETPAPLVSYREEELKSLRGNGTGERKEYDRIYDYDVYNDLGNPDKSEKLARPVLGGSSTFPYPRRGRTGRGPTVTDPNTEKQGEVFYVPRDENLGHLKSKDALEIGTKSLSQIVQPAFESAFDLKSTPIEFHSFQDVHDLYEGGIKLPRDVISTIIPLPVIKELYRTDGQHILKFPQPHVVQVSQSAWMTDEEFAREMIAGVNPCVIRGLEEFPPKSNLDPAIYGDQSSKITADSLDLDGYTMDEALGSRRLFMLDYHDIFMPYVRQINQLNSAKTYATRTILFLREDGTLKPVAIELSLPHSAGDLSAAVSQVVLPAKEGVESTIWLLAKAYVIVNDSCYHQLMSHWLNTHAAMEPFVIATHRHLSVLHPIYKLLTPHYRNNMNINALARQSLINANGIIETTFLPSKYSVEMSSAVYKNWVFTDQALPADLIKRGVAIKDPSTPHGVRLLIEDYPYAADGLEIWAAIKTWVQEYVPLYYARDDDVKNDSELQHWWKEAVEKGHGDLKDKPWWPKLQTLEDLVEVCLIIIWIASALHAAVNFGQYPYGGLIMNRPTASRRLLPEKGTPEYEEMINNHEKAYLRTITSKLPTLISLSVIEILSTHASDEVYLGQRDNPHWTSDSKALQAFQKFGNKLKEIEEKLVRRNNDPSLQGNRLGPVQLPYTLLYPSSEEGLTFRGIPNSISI

CCCCn1c(C)c2c(OCC(=O)N/N=C/c3ccc(C)cc3)nn(C)c(=O)c2c1C [Compound 7a, 2-(6-butyl-3,5,7-trimethyl-4-oxo-pyrrolo[3,4-d]pyridazin-1-yl)oxy-N-[(Z/E)-p-tolylmethyleneamino]acetamide]
melting point: 209 to 211 °C
IC50 [1]: 93.8 ± 4.2 µM
IC50 [2]: 116 ± 3.6 µM
Cell Morphology in Culture [2]: Cells with an elongated shape characteristic of fibroblasts, the granularities were observed in 3–5 fields of view from 10 analyzed fields.
IC50 [3]: 16.1 ± 1.8 µM
Selectivity Index (SI) [3]: 0.17
IC50 [4]: 15.3 ± 2.1 µM

Cc1c2c(OCC(=O)N/N=C/c3ccccc3O)nn(C)c(=O)c2c(C)n1-c1cccc(Cl)c1 [Compound 6c, 2-[6-(3-chlorophenyl)-3,5,7-trimethyl-4-oxo-pyrrolo[3,4-d]pyridazin-1-yl]oxy-N-[(Z/E)-(2-hydroxyphenyl)methyleneamino]acetamide]
melting point: 230 to 232 °C
IC50 [1]: 76.8 ± 6 µM
IC50 [2]: 211 ± 9.6 µM
Cell Morphology in Culture [2]: Normal morphology of fibroblasts–elongated cells, single granular cells in 1 of 10 assessed fields of view.
IC50 [3]: 9.8 ± 3.1 µM
Selectivity Index (SI) [3]: 0.13
IC50 [4]: 14.7 ± 0.02 µM

Cc1c2c(OCC(=O)N/N=C/c3ccccc3O)nn(C)c(=O)c2c(C)n1-c1ccccc1 [Compound 6b, N-[(Z/E)-(2-hydroxyphenyl)methyleneamino]-2-(3,5,7-trimethyl-4-oxo-6-phenyl-pyrrolo[3,4-d]pyridazin-1-yl)oxy-acetamide]
melting point: 214 to 217 °C
IC50 [1]: 97.7 ± 6.8 µM
IC50 [2]: 80.7 ± 1.9 µM
Cell Morphology in Culture [2]: Cells with an elongated shape characteristic of fibroblasts, the granularities were observed in 3–5 fields of view from 10 analyzed fields.
IC50 [3]: 27.7 ± 2.5 µM
Selectivity Index (SI) [3]: 0.28
IC50 [4]: 13.7 ± 0.03 µM

Cc1ccc(/C=N/NC(=O)COc2nn(C)c(=O)c3c(C)n(-c4ccccc4)c(C)c23)cc1 [Compound 7b, N-[(Z/E)-p-tolylmethyleneamino]-2-(3,5,7-trimethyl-4-oxo-6-phenyl-pyrrolo[3,4-d]pyridazin-1-yl)oxy-acetamide]
melting point: 271 to 272 °C
IC50 [1]: 91.5 ± 5.1 µM
IC50 [2]: 181 ± 8.7 µM
Cell Morphology in Culture [2]: Normal morphology of fibroblasts-elongated cells, single granular cells in 1 of 10 assessed fields of view.
IC50 [3]: 24.5 ± 2.1 µM
Selectivity Index (SI) [3]: 0.27
IC50 [4]: 13.7 ± 0.07 µM

Cc1ccc(/C=N/NC(=O)COc2nn(C)c(=O)c3c(C)n(-c4cccc(Cl)c4)c(C)c23)cc1 [Compound 7c, 2-[6-(3-chlorophenyl)-3,5,7-trimethyl-4-oxo-pyrrolo[3,4-d]pyridazin-1-yl]oxy-N-[(Z/E)-p-tolylmethyleneamino]acetamide]
melting point: 248 to 250 °C
effect on COX-1 isoform (in words) ([1]; enzymatic assay): does not affect the COX-1 isoform
IC50 [2]: 81.6 ± 5.1 µM
Cell Morphology in Culture [2]: Cells with an elongated shape characteristic of fibroblasts, the granularities were observed in 3–5 fields of view from 10 analyzed fields.
IC50 [3]: 22.7 ± 2.5 µM
IC50 [4]: 13.3 ± 0.02 µM

CCCCn1c(C)c2c(OCC(=O)N/N=C/c3ccccc3O)nn(C)c(=O)c2c1C [Compound 6a, 2-(6-butyl-3,5,7-trimethyl-4-oxo-pyrrolo[3,4-d]pyridazin-1-yl)oxy-N-[(Z/E)-(2-hydroxyphenyl)methyleneamino]acetamide]
melting point: 225 to 227 °C
IC50 [1]: 89.2 ± 4.1 µM
IC50 [2]: 88.7 ± 4.1 µM
Cell Morphology in Culture [2]: Cells with an elongated shape characteristic of fibroblasts, the granularities were observed in 3–5 fields of view from 10 analyzed fields.
IC50 [3]: 16.4 ± 1.1 µM
Selectivity Index (SI) [3]: 0.18
IC50 [4]: 13.6 ± 0.03 µM
